Test results published in US12233129B2, “Methods and compositions for the treatment of cancer” (priority 2019, dated 2025).
Entries after “also recorded” stand apart in the source; their conditions may differ.

How the values were obtained:
[1] = test system: HCT-116 p53+/− or p53 −/−; assay: Clonogenic survival assay; type: cell-based, human; settings: effective doses
Text: (§1) We next performed a clonogenic survival assay (S4E) to determine colony formation in cancer cells in the presence and absence of VTD. […] At the same time, we measured the mot-2, p53, and UBXN2A protein levels in all these cell lines. […] To verify whether VTD-induced cell death is mediated through the UBXN2A-mot-2-p53 axis, we looked at the expression of p53 in the cytoplasm and nucleus of HCT-116 cells following VTD treatment. […] Due to a high cell death in higher doses of VTD, we could not use WB analysis for reliable p53 and UBXN2A detection and quantification. Finally, we checked the effect of VTD on non-cancerous cell lines. We incubated human umbilical vein endothelial cells (HUVECs), which mimic non-cancerous endothelial cells next to tumor cells, with VTD (S4G). […] Due to the different levels of the stress condition, we observed more sensitivity to VTD in LoVo and U2OS cells versus HCT-116 cells. In addition, lack of similar response in normal cells due to the absence of stresses and cytoplasmic mot-2 further explains VTD is therefore a drug that selectively targets cancer cell.
(§2) The viability of cells was calculated as % of control.
(§3) FIG. 17: Induction of apoptosis and in vitro cytotoxicity by VTD in a human cancer cell line with different statuses of p53 and mot-2. (A-D) Cells were treated with VTD for 24, 48, and 72 hours. After incubation, dead cells were washed off, and the remaining attached cells were calculated by counting in five random fields using the Axiovert 200 M inverted microscope and AxioVision software (cell detachment assay). The % of cells attached was calculated as % of control cells. […] The data is shown as mean+SEM of three independent experiments (n=3, *p<0.05). (E-K) Cells were plated for 5 days, and the colonies of cells were treated with different concentration of VTD. The colonies of viable cells were stained with crystal violet dye and absorbance, as an index of measurement of colony forming units, was read at 562 nm (clonogenic survival assay). VTD induced a significant decrease in cell viability in a p53- and differentiation grade manner in HCT-116 poorly differentiated cells (E), HCT 116 p53+/−(F), HCT-116 p53−/− (G), LoVo well-differentiated cells (H), SW-480 (K), and two non-colon cancer cells: HepG2 (I) and U2OS (J). The data is shown as mean+SEM of three independent experiments (n=3, *p<0.05). (L) Determination of endogenous levels of mot-2, UBXN2A, HSC70, and p53 proteins in various cancer cell lines using WB. (M) HCT-116 cells were treated with VTD (10 and 30 μM) and cytoplasmic and nuclear fractions were subjected to WB. HSC70 and Orc-2 antibodies were used as cytoplasmic and nuclear markers, respectively.

HCT-116 [2] = assay: Clonogenic survival assay; type: cell-based, human; settings: in higher doses
Text: as §1, §2, §3

HepG2 = assay: Clonogenic survival assay; type: cell-based, human; settings: as low as 30 μM VTD
Text: as §1, §2, §3

LoVo [3] = assay: Clonogenic survival assay; type: cell-based, human; settings: as low as 30 μM VTD
Text: as §1, §2, §3

SW480 [4] = assay: Clonogenic survival assay; type: cell-based, human; settings: mutant p53, even at higher doses
Text: as §1, §2, §3

U2OS [5] = assay: Clonogenic survival assay; type: cell-based, human; settings: as low as 30 μM VTD
Text: as §1, §2, §3

p53 = assay: Western blot of p53 in cytoplasmic and nuclear fractions of HCT-116 cells; type: cell-based, human; settings: VTD 10 and 30 μM
Text: We next performed a clonogenic survival assay (S4E) to determine colony formation in cancer cells in the presence and absence of VTD. […] At the same time, we measured the mot-2, p53, and UBXN2A protein levels in all these cell lines. […] To verify whether VTD-induced cell death is mediated through the UBXN2A-mot-2-p53 axis, we looked at the expression of p53 in the cytoplasm and nucleus of HCT-116 cells following VTD treatment. […] Due to a high cell death in higher doses of VTD, we could not use WB analysis for reliable p53 and UBXN2A detection and quantification. Finally, we checked the effect of VTD on non-cancerous cell lines. […]
Nuclear and cytoplasmic fractions were prepared from the cells using NE-PER Nuclear and Cytoplasmic Extraction Reagents (Pierce, IL, USA) according to the manufacturer's instructions. Protein concentrations were determined by BCA assay followed by SDSPAGE and WB analysis with the appropriate antibodies (Supplementary Table S3).
FIG. 17: Induction of apoptosis and in vitro cytotoxicity by VTD in a human cancer cell line with different statuses of p53 and mot-2. […] After incubation, dead cells were washed off, and the remaining attached cells were calculated by counting in five random fields using the Axiovert 200 M inverted microscope and AxioVision software (cell detachment assay). The % of cells attached was calculated as % of control cells. […]

[6] = test system: human umbilical vein endothelial cells (HUVECs); assay: Effect on non-cancerous cells; type: cell-based
Text: as §1

HCT-116 [7] = assay: Annexin V early apoptosis, VTD plus etoposide; type: cell-based, human; settings: VTD 10-200 μM plus etoposide 5 μM, 24 hours
Description: as §2
(§4) Cells were then stained with Annexin V apoptotic marker.

LoVo [8] = assay: Annexin V early apoptosis, VTD plus etoposide; type: cell-based, human; settings: VTD 10-200 μM plus etoposide 5 μM, 24 hours
Description: as §2, §4

HCT-116 [9] = type: cell-based, human; settings: 10 days
Description: (§5) Because colon cancer cells develop resistance to chemotherapy after an initial response, we decided to investigate whether VTD can potentiate the cytotoxic effect of 5-FU when cells receiving long-term therapy mimicking the in vivo therapy. Cells were treated with VTD for 10 days.
(§6) Based on the significant effect of long-term exposure in LoVo and U2OS, we hypothesized that VTD could be a potential complementary strategy alongside 5-FU, an effective drug with a high rate of resistant events in colon tumors. To answer this question, we first determined the minimum concentration of 5-FU that has no effect or a very mild effect on cell viability after 10 days' exposure in three cell lines HCT-116, LoVo, and U2OS (data not shown). We performed the 10 days' treatment using a combination of a low dose of VTD (50 μM or 100 μM) plus a suboptimal dose of 5-FU (1 μM or 5 μM).
(§7) FIG. 20: Sensitization of colon cancer cells to a long-term suboptimal dose of 5-fluorouracil exposure when combined with VTD. (A-D) (A) HCT-116, (B) LoVo, (C) SW-480, and (D) U2OS were treated with VTD (10-300 μM) for 10 days. […] (E-G) (E) HCT-116, (F) LoVo, and (G) U-2OS were treated with suboptimal doses of 5-FU and VTD (50 and 100 μM) for 10 days. […] (H-I) A series of flow cytometry assays using an antibody against the CD44 cancer stem cell marker illustrated that VTD can target CD44+ colon cancer stem cells and eventually eliminate them in a dose-dependent manner, implicating VTD as a potential cancer stem cell-targeting therapy. (J) Tumor tissue lysates from 48 patients with colon cancer along the matched adjacent normal colon tissue lysates were probed with anti-UBXN2A and anti-Actin antibodies, followed by quantitation and normalization of signals. […] (I) The proposed mechanism action of VTD. VTD increases the expression of UBXN2A, which releases the p53 from mot-2's sequestration and, together with standard chemotherapy, can cause an effective tumor suppression.

LoVo [10] = type: cell-based, human; settings: 10 days
Description: as §5, §6, §7

U2OS [11] = type: cell-based, human; settings: 10 days
Description: as §5, §6, §7

SW480 [12] = assay: Long-term (10 days) exposure colony formation / cell viability; type: cell-based, human; settings: VTD 10-300 μM, mutant p53
Description: as §5, §7

[13] = VTD 50 or 100 μM plus 5-FU 1 or 5 μM

COc1ccc(C(=O)O[C@H]2CC[C@@]3(C)[C@@H]4CC[C@H]5[C@]6(O)C[C@H](O)[C@@]7(O)[C@@H](CN8C[C@@H](C)CC[C@H]8[C@@]7(C)O)[C@]6(O)C[C@@]53O[C@]24O)cc1OC [VTD, Veratridine]
p53 dependence of anti-colony formation role [1]: partially p53 dependent | colony formation (HCT-116 [2]): reduces colony formation | number of colonies (HepG2): significantly decreases the number of colonies | number of colonies (LoVo [3]): significantly decreases the number of colonies | number of colonies (SW480 [4]): no response | number of colonies (U2OS [5]): significantly decreases the number of colonies | p53 levels in cytoplasm and nucleus (WB) (p53): increases WT-p53 levels both in the cytoplasm and nucleus; also recorded: increases p53 in both cytoplasm and nucleus compartments in a dose-dependent manner | response of non-cancerous HUVEC cells ([6]; first 24 hours): did not respond | response of non-cancerous HUVEC cells ([6]; highest dose of VTD, 48 hours): moderate response | early apoptosis (Annexin V) (HCT-116 [7]): significantly increased the early apoptosis | early apoptosis (Annexin V) (LoVo [8]): significantly increased the early apoptosis | cell viability, long-term exposure (HCT-116 [9]; VTD 10-300 μM): only responded to a high concentration of VTD | cytotoxic effect of suboptimal 5-FU in presence of VTD (HCT-116 [9]; [13]): significantly potentiated the cytotoxic effect of the suboptimal dose of 5-FU | cell viability, long-term exposure (LoVo [10]; VTD 10-300 μM): significant decrease in cell viability in a dose-dependent manner | cytotoxic effect of suboptimal 5-FU in presence of VTD (LoVo [10]; [13]): significantly potentiated the cytotoxic effect of the suboptimal dose of 5-FU | cell viability, long-term exposure (U2OS [11]; VTD 10-300 μM): significant decrease in cell viability in a dose-dependent manner | cytotoxic effect of suboptimal 5-FU in presence of VTD (U2OS [11]; [13]): significantly potentiated the cytotoxic effect of the suboptimal dose of 5-FU | cell viability, long-term exposure (SW480 [12]): no response
